From US20110020239A1, “METHODS FOR IN VIVO IMAGING OF CELLS” (The Johns Hopkins University, priority 2007, published 2011)

Tests used:
[1] = tested on: human islets; experiment: Insulin secretion assay (static incubation, C-peptide ELISA); assay type: cell-based; parameters: glucose responsiveness stimulation index: dose or concentration left out as unconfirmed; settings: for difference in glucose responsiveness stimulation index between PFOB and PFPE: PFOB vs PFPE, p>0.05; for glucose responsiveness stimulation index: increase of insulin secretion
Experimental: A static incubation assay was used to assess the insulin secretion response of labeled human islets. One hundred islets were placed in a culture insert (membrane pore diameter 12 μm; Millicell PCF) in six-well plates. The insulin secretion was measured after 1.5 hrs in a solution of a specific glucose level. […] Aliquots of the medium were stored at −80° C. The C-peptide content of the samples was determined with an enzyme-linked, immunosorbent assay (ultrasensitive human c-peptide ELISA, Alpco Diagnostics); results (in ng/ml) were expressed as the means of three independent experiments. The C-peptide secretion was also assessed at 7 days and at 14 days following islet encapsulation, using 8 mM glucose and 90 min incubation.

[2] = 19F NMR of PFCs (aqueous solubility); assay type: physicochemical; settings: 19F NMR experiments
Text: In the ^19F NMR spectrum of PFOB, eight resonance peaks are observable, one for each carbon position.

[3] = tested on: human islets; experiment: Microfluorometric viability assay (Newport Green / propidium iodide) of labeled islets; assay type: cell-based
Experimental: Fresh human cadaveric islets were provided by the Joslin Diabetes Research Center (Boston, Mass.) under an approved protocol of the National Islet Cell Resource Program. Islets were cultured in RPMI 1640 medium (Gibco), supplemented with 10% fetal calf serum and 1% penicillin/streptomycin/L-glutamine (all reagents from Sigma Co) in a humidified CO2 incubator at 37° C. and a 5% CO2 atmosphere. Islets were cultured in tissue culture plates and culture media was replaced every 3 days. For all Feridex labeled islets, islets were initially labeled with procedure described below and then were cultured in contrast free medium. In the case of PFC labeled islets, the respective PFC was supplemented to each change of culture medium throughout the entire culture period.
Viability of labeled human islets was determined using a microfluorometric assay. Cells were incubated for 30 minutes with […] Newport Green (NG, Sigma, St. Louis, Mo.), which stains viable cell cytoplasm green. Following NG staining, islets were incubated for 10 minutes with 5 mM propidium iodide (PI, Sigma, St. Louis, Mo.), which emits red fluorescence when bound to nucleic acids. NG was excited by using a 500 nm laser line and emitted fluorescence was detected using a 535 nm long-pass filter. PI was excited by using a 514 nm laser line and emitted fluorescence was detected using a 550 nm long-pass filter. NG stained cells (green) were counted as viable, while PI stained cells (red) were counted as dead. In cases of dual staining, the cells were considered dead.

[4] = tested on: dendritic cells; settings: Ahrens, Flores et al. 2005; cited from earlier work

SMILES | difference in glucose responsiveness stimulation index between PFOB and PFPE [1] | glucose responsiveness stimulation index [1] | glucose responsiveness of labeled vs unlabeled islets ([1]; insulin secretion assays) | aqueous solubility [2] | islet viability compared to both Feridex labeled and unlabeled islets [3] | percentage survival of labeled islets compared to unlabeled control islets ([3]; all days / all time points (days 1, 7, 14)) | effect on dendritic cell proliferation, function, or maturation [4] | percentage survival of labeled islets compared to unlabeled control islets ([3]; days 7 and 14, p<0.05)
FC(F)(F)C(F)(F)C(F)(F)C(F)(F)C(F)(F)C(F)(F)C(F)(F)C(F)(F)Br [PFOB, perfluorooctylbromide] | no significant statistical difference | 2.19 | no significant difference | below the limit of detection | significant increase in viability | statistically significant increase | – | –
FC1(F)OC(F)(F)C(F)(F)OC(F)(F)C(F)(F)OC(F)(F)C(F)(F)OC(F)(F)C(F)(F)OC1(F)F [PFPE, perfluoro-15-crown-5 ether] | no significant statistical difference | 2.07 | – | – | – | – | no effect | significant statistical differences
